Assay results as given in US5116815A, “PF 1022 substance, method of treating helminthic parasitic infection and anthelmintic composition” (Meiji Seika Kaisha Ltd., priority 1989, dated 1992).
Several values for one entry are separate records, joined by “and”; a condition that tells them apart may be missing. Identical values can stand only once.

Tests used:
Assay type in all cases: in vivo
[1] = tested on: large intestinal roundworms (Ascaridia galli); experiment: Chicken large intestinal roundworm elimination test, single oral dose; conditions: chickens; for Mean % Elimination / % Elimination: 7 days; for Mean % Elimination / Mean % body weight gain: group of 3; for % Elimination / % Body weight gain: individual chicken; for Mean % body weight gain / % Body weight gain: after 7 days
Method: Chickens verified to be artificially infected with large intestinal roundworms (Ascaridia galli) by scatoscopy were used in groups of three animals. The PF 1022 substance was used at five levels of dose from 0.2 mg/kg to 3 mg/kg. A total of 18 chickens were used in 6 groups, inclusive of an untreated control group.
For administration, an amount of the PF 1022 substance exactly equal to the dose calculated on the basis of the body weight of each chicken was weighed and suspended in water containing carboxymethylcellulose (CMC), and the suspension was administered orally as a single dose using a stomach tube. After administration, the worms eliminated were counted daily for each chicken and, after 7 days, each chicken was sacrificed and autopsied and the worms remaining in the intestinal tract were counted. The percent elimination was calculated as follows: [formula] Furthermore, the body weight just prior to administration and the body weight after 7 days were measured for each chicken and the percent body weight gain was calculated as follows: [formula]

[2] = tested on: feline roundworms (Toxocara cati); experiment: Anthelmintic activity against cat large intestinal roundworms; conditions: cats
Method: The PF 1022 substance was evaluated for its anthelmintic effect on feline roundworms (Toxocara cati) by orally administering the substance once to 12 cats found to be infected with the roundworms by scatoscopy.
The infected cats were used in three groups of 4 animals and given 0.2 mg/kg, 1 mg/kg and 5 mg/kg of the substance, respectively, admixed as such with a small portion of ordinary feed. The observation items were the number of roundworms eliminated during the 7 day observation period following administration and the number of remaining roundworms as found upon autopsy performed 7 days after administration.

[3] = tested on: feline hookworms (Ancylostoma tubaeforme); experiment: Anthelmintic activity against cat hookworms; conditions: cats
Method: The PF 1022 substance was evaluated for its anthelmintic effect on feline hookworms (Ancylostoma tubaeforme) by orally administering the substance once to 12 cats found to be infected with said worms by scatoscopy.
The infected cats were divided into three groups of 4 animals and respectively given 0.2 mg/kg, 1 mg/kg and 5 mg/kg of the substance admixed as such with a small portion of the ordinary feed. The observation items were the number of worms eliminated during 7 days following administration and the number of remaining worms found upon autopsy 7 days after administration.

[4] = tested on: fourth stomachworms (Ostertaqia circumcincta); experiment: Sheep digestive tract nematodes, worms remaining in the fourth stomach; conditions: for number of worms remaining in the fourth stomach at autopsy: autopsy 7 days after administration, mean of 6 animals
Method: The PF 1022 substance was evaluated for its anthelmintic effect in sheep mixedly infected with fourth stomachworms (Ostertaqia circumcincta) and small intestinal hairworms (Trichostrongylus colubriformis) by administering it orally to 24 sheep artificially infected with said two worm species.
The infected sheep were divided into 4 groups of 6 animals, which were respectively given 1 mg/kg, 5 mg/kg, 10 mg/kg and 0 mg/kg (control) of the substance suspended in 0.5% CMC, via a stomach catheter. The observation items were the number of parasite eggs per gram of feces (EPG) before administration, the EPG 7 days after administration, and the number of worms remaining in the fourth stomach and that of worms remaining in the intestinal tract as found upon autopsy 7 days after administration.
Each numerical value given is the mean of 6 animals.

[5] = tested on: roundworms (Parascaris equorum); experiment: Anthelmintic effect on equine roundworms; conditions: horse, oral 5 mg/kg Day 0 and 2.5 mg/kg Day 1
Method: The PF 1022 substance was evaluated for its anthelmintic effect in a horse found by scatoscopy to be infected with roundworms (Parascaris equorum) and strongyles (Strongylus spp.) by orally administering the substance thereto.
The PF 1022 substance was suspended in water and administered with a stomach catheter at 5 mg/kg on the first day and at 2.5 mg/kg on the second day. For both the roundworms and strongyles, parasite eggs in each gram of feces (EPG) as well as parasites eliminated were counted daily for one week following the first administration. For strongyles, the number of worms in 100 g of feces was determined.

[6] = tested on: large intestinal roundworms (Ascaridia galli); experiment: Chicken large intestinal roundworms, administration in feed for 3 weeks; conditions: chickens; for Number of eggs before starting administration: baseline
Method: The PF 1022 substance was evaluated for its anthelmintic effect on 9 chickens found, by scatoscopy, to be infected with large intestinal roundworms (Ascaridia galli) by administering it in admixture with the feed.
The chickens were divided into three groups of 3 animals, which served as the 1 ppm, 5 ppm and 10 ppm groups. The feed containing the PF 1022 substance in each concentration mentioned above was given to the chickens for 3 weeks. Parasite eggs in feces were counted at one-week intervals in terms of EPG and worms eliminated were counted daily. At the end of the administration period, the chickens were sacrificed and autopsied and the worms remaining therein were counted.

[7] = single oral dose 0.2 mg/kg, 0.2 mg/kg
[8] = single oral dose 0.5 mg/kg, 0.5 mg/kg
[9] = single oral dose 1 mg/kg, 1 mg/kg
[10] = single oral dose 2 mg/kg, 2 mg/kg
[11] = single oral dose 3 mg/kg, 3 mg/kg
[12] = single oral dose 5 mg/kg, autopsy 7 days

CC(C)C[C@H]1C(=O)O[C@H](Cc2ccccc2)C(=O)N(C)[C@@H](CC(C)C)C(=O)O[C@H](C)C(=O)N(C)[C@@H](CC(C)C)C(=O)O[C@H](Cc2ccccc2)C(=O)N(C)[C@@H](CC(C)C)C(=O)O[C@H](C)C(=O)N1C [PF 1022 substance]
Mean % Elimination ([1]; single oral dose 0.2 mg/kg): 18.5%
% Elimination [1, 7]: 12.9% and 16.0% and 26.7%
Mean % body weight gain ([1]; single oral dose 0.2 mg/kg): 9.6%
% Body weight gain [1, 7]: 6.3% and 8.4% and 14.0%
Mean % Elimination ([1]; single oral dose 0.5 mg/kg): 45.4%
% Elimination [1, 8]: 16.4% and 52.1% and 67.7%
Mean % body weight gain ([1]; single oral dose 0.5 mg/kg): 9.2%
% Body weight gain [1, 8]: 8.2% and 11.5% and 7.8%
Mean % Elimination ([1]; single oral dose 1 mg/kg): 74.1%
% Elimination [1, 9]: 60.0% and 76.1% and 86.2%
Mean % body weight gain ([1]; single oral dose 1 mg/kg): 8.7%
% Body weight gain [1, 9]: 8.2% and 6.6% and 11.2%
Mean % Elimination ([1]; single oral dose 2 mg/kg): 84.6%
% Elimination [1, 10]: 82.1% and 93.5% and 78.3%
Mean % body weight gain ([1]; single oral dose 2 mg/kg): 8.9%
% Body weight gain [1, 10]: 7.8% and 10.5% and 8.4%
% Elimination [1, 11]: 100% and 95.5% and 98.3%
% Body weight gain [1, 11]: 11.8% and 9.7% and 8.3%
% Elimination [2, 7]: 100% and 50.0%
% Elimination [2, 9]: 100% and 80.0%
% Elimination ([2]; single oral dose 5 mg/kg): 100%
Number of remaining worms [2, 12]: 0
% Elimination [3, 9]: 62.5% and 100% and 87.5% and 98.2%
% Elimination ([3]; single oral dose 5 mg/kg): 100%
Number of remaining worms [3, 12]: 0
number of worms remaining in the fourth stomach at autopsy ([4]; oral 1 mg/kg): 4967
number of worms remaining in the fourth stomach at autopsy ([4]; oral 5 mg/kg): 4717
number of worms remaining in the fourth stomach relative to the control infected group ([4]; oral 10 mg/kg): about half
number of worms remaining in the fourth stomach at autopsy ([4]; oral 10 mg/kg): 2463
EPG ([5]; Day 0): 77
Number of worms eliminated ([5]; Day 0): 0
EPG ([5]; Day 1): 52
Number of worms eliminated ([5]; Day 1): 22
EPG ([5]; Day 2): 0.4
Number of worms eliminated ([5]; Day 2): 17
EPG ([5]; Day 3): 0.2
Number of worms eliminated ([5]; Day 3): 0
EPG ([5]; Day 4): 0
Number of worms eliminated ([5]; Day 4): 0
EPG ([5]; Day 5): 0
Number of worms eliminated ([5]; Day 5): 0
EPG ([5]; Day 6): 0.2
Number of worms eliminated ([5]; Day 6): 0
EPG ([5]; Day 7): 0
Number of worms eliminated ([5]; Day 7): 0
Number of worms remaining ([6]; 1 ppm in feed for 3 weeks, autopsy): 49 and 96 and 83
Number of eggs before starting administration ([6]; 1 ppm in feed): > 300 and 172
% Elimination ([6]; 5 ppm in feed for 3 weeks): 86.1% and 56.9% and 62.5%
Number of eggs before starting administration ([6]; 5 ppm in feed): 300 and > 300 and 158
Number of worms eliminated ([6]; 10 ppm in feed for 3 weeks): 44 and 55 and 45
Number of eggs before starting administration ([6]; 10 ppm in feed): 300 and > 300 and 176
